According to US8198317B2, “Methylenedioxy phenolic compounds and their use to treat disease” (The Ohio State University Research Foundation, priority 2008, dated 2012):
“Also recorded” adds a separate entry of the source.

Key:
Assay type in all cases: in vivo, rabbit
[1] = tested on: New Zealand White rabbits; experiment: MRI assessment of atherosclerosis in balloon denuded NZW rabbits; settings: high fat diet, 100 mg/kg/day, 12 weeks
Protocol: (§1) Animal Model: 15 male New Zealand White rabbits (Charles River, Mass.) were fed with high fat diet (HFD) (Harlan Teklad rabbit diet with 0.5% cholesterol, TD 87251). After 4 weeks of high fat diet, rabbits were randomized into three different treatment groups, normal control (n=5), lipoic acid (100 mg/kg/day) (n=5), INV 70-65 (100 mg/kg/day) (n=5). These drugs were administered to the animals via their chow by mixing the drugs with the high fat diet. A fixed amount of chow and drugs admixed in the chow were fed to all animals every day after carefully calculating food intake in each rabbit. Drugs were dissolved in 100% ethanol and sprayed onto the diet and kept under vacuum to let ethanol evaporate overnight. Two (2) weeks after drug or control admixed HFD, all rabbits underwent aortic balloon denudation surgeries followed by 12 weeks of continued administration of drug or controls admixed with HFD. FIG. 29 provides an outline of the experimental design.
MRI experiments were conducted at two time points: 1 week and 12 weeks after the balloon denudation procedure (FIG. 29). […] MR images were analyzed using a Siemens Leonardo Workstation (Siemens Healthcare Inc. Germany).
To assess the different rates of atherosclerosis plaque progression for each rabbit group, the aortic wall was identified in the pre-contrast images at both MRI time points. […] To account for the variable number of slices, for each rabbit a normalized aortic wall volume was calculated.
To assess plaque neovasculature progression in the different treatment groups, only the 12 weeks post balloon denudation MR images were used. […] The signal to noise ratio (SNR) for each slice was calculated as the mean signal obtained from the vessel wall divided by the standard deviation of the noise from a region outside the body. A ratio of the SNR enhancement for each rabbit was obtained by dividing the post and pre contrast calculated SNRs.

[2] = tested on: New Zealand White rabbits; experiment: Oil Red O staining of abdominal aorta of NZW rabbits; settings: NZW abdominal aorta
Protocol: as §1
Hypercholesterolemia and oxidative stress play an important role in the development of atherosclerosis. The rabbits were sacrificed and abdominal aortas were fixed in 4% PFA (paraformaldehyde). The lipid deposition in the aortic wall was then visualized by oil red staining.

[3] = tested on: New Zealand White rabbits; experiment: Plasma lipid profile in NZW rabbits; settings: end of treatment
Protocol: as §1
A lipid profile (Cholesterol, Triglycerides, direct HDL, LDL and VLDL) was performed after a total of 12 weeks of treatment with the drugs. One (1) ml of blood from the ear lobe vein was placed into tubes containing K EDTA at the beginning of the high cholesterol diet and again at the time of sacrifice. All values were expressed as mean±SD. The bar graph of each group both at the baseline and the end point measurement is presented. The statistical analysis was done with one way ANOVA.

[4] = tested on: thoracic aorta of New Zealand White rabbits; experiment: Myograph experiments on thoracic aortic rings of NZW rabbits; settings: NZW thoracic aorta, end of 12 weeks
Protocol: as §1
Rabbits were euthanized by injection of lethal doses of pentobarbital. The thoracic aortas were collected for the myograph studies. Two (2) mm thoracic aortic rings were suspended in individual organ chambers filled with physiological salt solution buffer (sodium chloride, 130 mEq/L; potassium chloride, 4.7 mEq/L; calcium dichloride, 1.6 mEq/L; magnesium sulfate, 1.17 mEq/L; potassium diphosphate, 1.18 mEq/L; sodium bicarbonate, 14.9 mEq/L; EDTA, 0.026 mEq/L; and glucose, 99.1 mg/dL [5.5 mmol/L]; pH, 7.4), aerated continuously with 5% carbon dioxide in oxygen at 37° C. Vessels were allowed to equilibrate for at least 1 hour at a resting tension of 30 mN before being subjected to graded doses of agonists. The vasoconstrictor agonist phenylephrine (PE) was used and responses were expressed as a percentage of the peak response to 120 mEq/L of potassium chloride. The vessels subjected to PE were washed thoroughly and allowed to equilibrate for 1 hour before beginning experiments with acetylcholine or sodium nitroprusside (SNP). […] Results for the vasodilators were expressed as a percentage of pre-contraction by PE (0.1 μM).

## O=C(O)CCCC[C@@H]1CCSS1 (racemic) [Lipoic Acid, lipoic acid, reference compound]
[1]
  plaque burden by MRI: no difference
[2]
  lipid content in the plaque area (Oil Red O) compared to the control group: reduction
[3]
  HDL levels: increased moderately
  LDL level compared to normal control: moderate decreases; also recorded: lower
  TC level compared to normal control: moderate decreases
  VLDL levels compared to controls: no change
  triglyceride (TG) levels compared to controls: significantly decreased
[4]
  Ach LogEC50: −6.47 ± 0.18 M
  PE LogEC50: −6.48 ± 0.09 M
  SNP-1 LogEC50: −6.75 ± 0.21 M
[4]; % of peak response to KCl
  PE Maximum Effect: 154.0 ± 7.24%
[4]; % of pre-contraction by PE
  Ach Maximum Effect: −33.00 ± 2.94 %
  Insulin Maximum Effect: −107.8 ± 7.68%
  SNP-1 Maximum Effect: −89.04 ± 7.67%
